Series [1] is described as follows: Serum stability assay. In kind it is in vitro ADME. As to conditions: 37°C; for half-life at 50 μM / remaining at 24 h, 50 μM: human blood serum (centrifuged to remove lipid), 24 h, RP-HPLC at 254 nm; for half-life at 50 μM: n = 3; for serum half-life compared to P1: human blood serum, 50 μM; for remaining at 24 h, 50 μM: n = 3, read-out: peptide intact after 24 h in serum. The protocol: The impact of N-terminal modification (P2 and P3) and Sr (N-methylglycine) substitution (P4 and P5) in P1 were investigated for their proteolytic stability towards blood plasma proteases. The assay involved the incubation of peptides (50 μM) with blood serum at 37°C for a period of 24 h and assessing the amount of intact peptides at different time points (0, 3, 6, 12 and 24 h) using RP-HPLC. […] Remarkably, P4 and P5 were very stable towards blood plasma proteases in comparison to the other peptides (P1, P2 and P3). […] Proteolytic enzymes generally recognize the specific amide bond between the natural amino acids and cleave them. […] On the other hand, P4 and P5 with an unnatural amino acid (Sr: N-methylglycine) in alternate positions were not recognized by the blood plasma proteases, resulting in their high blood plasma protease stability.
Figure 6 Serum stability of inhibitors. Inhibitors (50 μM) (P1-P5)were incubated in human blood serum (HBS) and were analyzed at different time points over a duration of 24 h to determine the percentage of intact inhibitor. […] Each experiment was repeated three times (n = 3). Error bars represent the standard deviation (SD) of the […] measurement.
Human blood serum (HBS) was used to determine serum stability of the inhibitors. The HBS was centrifuged to remove the lipid component, and the supernatant was incubated at 37°C. 50 Μm of each inhibitor (P1, P2, P3, P4 and P5) was incubated in HBS and then 40 μL triplicate aliquots were removed at 0, 1, 3, 6, 10, 16, and 24 h. Each serum sample was quenched with 40 μL of 6 M urea and incubated at 4°C for 10 min. Then, each serum sample was quenched with 40 μL of trichloroacetic acid (20%) and incubated for another 10 min at 4°C to precipitate the serum proteins. The samples were centrifuged for 10 min, and […] of the supernatant was analyzed on RP-HPLC using a linear gradient of solvent B (0.3 mL/min flow rate). The control samples containing equivalent amounts of inhibitors in PBS buffer were subjected to the same treatment procedure. The percentage recovery of inhibitors was detected by integration at 254 nm[45].

Series [2] addresses T1, Aβ42 (Homo sapiens, UniProt P05067).
T1 construct: Aβ42 peptide (0.25 mg) (Calbiochem, Merck) was dissolved in hexafluoro-2-propanol; purchased Calbiochem, Merck
Nature of the series: ThT fluorescence inhibition assay of Aβ42 fibrillization. In kind it is biochemical. Particulars: for growth phase of Aβ42 fibrillization, time-dependent ThT assay / inhibition efficiency, time-dependent ThT assay: 1:2, 37°C, n = 3; for growth phase of Aβ42 fibrillization, time-dependent ThT assay: normalized fluorescence at 485 nm. How it is done: ThT assay has been widely used to monitor the transformation of Aβ42 monomers to fibrillar aggregates. We employed ThT assay to evaluate the ability of our peptidomimetic candidates to either prevent fibril assembly (inhibition) or to break down preformed fibrils of Aβ42 (dissolution). For the inhibition assay all the peptidomimetics (P2, P3, P4 and P5) along with control peptide P1 were added at 0 h of the experiment, whereas for the aggregates reversal (dissolution) assay they were added to Aβ42 fibrillar aggregates grown for 2 days. Once they had been incubated together, Aβ42/inhibitors were analyzed using ThT by measuring the fluorescence changes. First, we performed concentration-dependent experiments where different ratios of P1, P2, P3, P4 and P5 were incubated with fixed concentrations of Aβ42 (20 μM) and its aggregates to study their effect on both inhibition and reversal assay, respectively. Experiments were performed at stoichiometric ratios (Aβ42/inhibitor) of 1:0.2, 1:1, and 1:2 with the fixed concentration of Aβ42 of 20 μM. […] However, the efficiencies of P4 and P5 were only marginally better in inhibition assay compared to reversal assay with a difference of about 15%.
Fluorescence spectral measurements were carried out using Perkin Elmer Model LS 55 fluorescence spectrophotometer. […] A ThT concentration of 5–10 µM was used for amyloid fibrillization and dissolution assay based on the Aβ42 fibrillar concentration.
(§1) Prior to the experiment, P1, P2, P3, P4 and P5 were dissolved in HFIP and were evaporated under a stream of dry nitrogen. The dried samples were re-suspended in 10 mM PBS buffer at pH 7.4. An aliquot of Aβ42 peptide was then added to the solution with or without one of the inhibitor P1, P2, P3, P4 and P5. The mixtures were vortexed for approximately 30 s and then incubated at 37°C for 2–3 days without shaking. The final concentration of Aβ42 in the mixture was 20 μΜ. For a dissolution experiment, Aβ42 was incubated alone for 2 days to allow fibrils to form. An aliquot of the formed fibrils in 10 mM PBS buffer was then added to the inhibitor peptidomimetics. The amount of fibrils remaining intact was assayed using that fluorescence, CD measurements and transmission electron microscopy as described below.

For series [3], the target named is T1, Aβ42. The experiment in a line: CD measurement, inhibition assay (β-sheet band at 218 nm). In kind it is biochemical. Particulars: read-out: reduction in CD intensity at 218 nm (β-sheet content), inhibition assay.
From the text: To further validate our results, we performed CD studies. Aβ42 aggregates are predominantly made of β-sheet assembly, which can be assessed by CD measurements. […] In this assay, we monitored the intensity of negative CD band centered at 218 nm, characteristic of a β-sheet structure and a decrease in its intensity was correlated with a reduction in the toxic Aβ42 aggregates (supplementary Fig. S2). In these CD measurements, samples similar to ThT fluorescence assays were used to allow for direct comparison between the two experiments. In the case of inhibition assay, Aβ42 monomers were incubated with inhibitor candidates for 4 days at 37°C and then CD measurements were performed to evaluate the inhibition efficiency. […] In the reversal assay, Aβ42 aggregates were incubated with the inhibitor candidates for six days at 37°C and then, CD measurements were performed. CD data was in excellent agreement with the dissolution efficiency obtained in reversal assay experiments monitored by the ThT assay (Fig. 2). […] Overall, inhibition and dissolution efficiencies obtained in the ThT fluorescence assay and CD measurements were in good agreement.
The circular dichroic (CD) spectra were recorded using a Jasco J-815 spectrometer under nitrogen atmosphere. Peptides were dissolved in 10 mM PBS buffer at pH 7.4 at concentrations of 20 µM. A 10 mm path length was used for the measurements. Four to five scans were acquired from 200 to 300 nm.
as §1

Where [4] appears, read: Aβ42 20 μM, Aβ42:inhibitor 1:2 (40 μM), inhibitor added at 0 h, four days at 37°C, 10 mM PBS pH 7.4, n = 3, read-out: inhibition efficiency (reduction in the fluorescence intensity of ThT).
The mark [5] stands for this setting: Aβ42 20 μM, inhibitor 40 μM, 4 days at 37°C, vs untreated Aβ42.

By half-life is commonly meant the time needed for the level to fall by half in the phase considered. The low end stands for rapid decline, the high end for slow decline. The term inhibition denotes the percentage by which the read-out fell short of the control.

Non-standard residues stand in square brackets, D forms with d. Residues, ends and D or L forms follow the SMILES beside them. *: point of attachment. Acetyl(thymin-1-yl) = Cc1cn(CC(=O)*)c(=O)[nH]c1=O; Sar = CNCC(=O)O

T1 sequence (P05067 672-713 limits assumed): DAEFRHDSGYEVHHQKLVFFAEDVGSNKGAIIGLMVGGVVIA

Consider `Cc1cn(CC(=O)N[C@@H](CCCCN)C(=O)N[C@@H](CC(C)C)C(=O)N[C@H](C(=O)N[C@@H](Cc2ccccc2)C(=O)N[C@@H](Cc2ccccc2)C(N)=O)C(C)C)c(=O)[nH]c1=O` [P2], for which, in series [1], the half-life at 50 μM is ~10 h and the “serum half-life compared to P1” value amounted to 3 times. Also, the inhibition at 40 µM in series [2] (setting [4]) is 55%. Besides, in series [2] (Aβ42 20 μM), the “growth phase of Aβ42 fibrillization, time-dependent ThT assay” value was < 60%. Further, in series [3] (setting [5]), the inhibition at 40 µM was > 50%.
With `CC(C)C[C@H](NC(=O)[C@H](CCCCN)NC(=O)CC1C(=O)NC(=O)NC1=O)C(=O)N[C@H](C(=O)N[C@@H](Cc1ccccc1)C(=O)N[C@@H](Cc1ccccc1)C(N)=O)C(C)C` [P3], in series [1], the half-life at 50 μM is ~10 h and the “serum half-life compared to P1” value is 3 times. Moreover, the inhibition at 40 µM in series [2] (pH 7.4, read-out: inhibition efficiency (reduction in the fluorescence intensity of ThT)) was 40%. The “growth phase of Aβ42 fibrillization, time-dependent ThT assay” value in series [2] (Aβ42 20 μM) is < 60%. The inhibition at 40 µM in series [3] was ~30%.
Consider `Cc1cn(CC(=O)N(C)CC(=O)N[C@@H](CC(C)C)C(=O)N(C)CC(=O)N[C@@H](Cc2ccccc2)C(=O)N(C)CC(=O)N[C@@H](C)C(N)=O)c(=O)[nH]c1=O` [P4] ({Acetyl(thymin-1-yl)}-[Sar]L[Sar]F[Sar]A-NH2), for which, in series [1], the remaining at 24 h, 50 μM was > 90%. The values for the inhibition at 40 µM in series [2] (setting [4]) and in series [3] (setting [5]) were ≤ 95% and > 80%, respectively. Besides, the “inhibition efficiency, time-dependent ThT assay” value in series [2] (Aβ42 20 μM) is listed as > 90%.
For `Cc1cn(CC(=O)N[C@@H](CCCCN)C(=O)N(C)CC(=O)N[C@H](C(=O)N(C)CC(=O)N[C@@H](Cc2ccccc2)C(=O)N(C)CC(N)=O)C(C)C)c(=O)[nH]c1=O` [P5] ({Acetyl(thymin-1-yl)}-K[Sar]V[Sar]F[Sar]-NH2), the remaining at 24 h, 50 μM in series [1] is > 90%. For the same compound, the figures for the inhibition at 40 µM in series [2] (setting [4]) and in series [3] (setting [5]) were ≤ 95% and > 80%, respectively. Moreover, the “inhibition efficiency, time-dependent ThT assay” value in series [2] (Aβ42 20 μM) was > 90%.

The values above are taken from publication PMC4311240, “Rationally Designed Peptidomimetic Modulators of Aβ Toxicity in Alzheimer's Disease” (Scientific Reports, 2015).
